Measured values as given in ChEMBL document CHEMBL1201862, “PubChem BioAssay data set” (2004).
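96-well plates; 48 h exposure; 5 concentrations. Endpoints by linear interpolation between flanking doses. Not reached: highest tested concentration assigned. Abbreviation: GI50, concentration required for 50% inhibition of growth.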 Calls of active or inactive are those of the source. Rule as the data show it: active = GI50 up to about 1.1 µM and inactive = higher.

Assays:
Experiment in all cases: inhibition of tumour cell growth, NCI panel, 48 h
CCRF-CEM = tested on: CCRF-CEM
OVCAR-8 = tested on: OVCAR-8
Malme-3M = tested on: Malme-3M
SN12C = tested on: SN12C
M14 = tested on: M14
NCI-H23 = tested on: NCI-H23
HL-60 = tested on: HL-60
HCT-116 = tested on: HCT-116
EKVX = tested on: EKVX
COLO 205 = tested on: COLO 205
RPMI-8226 = tested on: RPMI-8226
SF-539 = tested on: SF-539
TK-10 = tested on: TK-10
NCI-H226 = tested on: NCI-H226
ACHN = tested on: ACHN
HT-29 = tested on: HT-29
U-251 = tested on: U-251
SNB-19 = tested on: SNB-19
MOLT-4 = tested on: MOLT-4

Row | SMILES | GI50 (CCRF-CEM) | GI50 (OVCAR-8) | GI50 (Malme-3M) | GI50 (SN12C) | GI50 (M14) | GI50 (NCI-H23) | GI50 (HL-60) | GI50 (HCT-116) | GI50 (EKVX) | GI50 (COLO 205) | GI50 (RPMI-8226) | GI50 (SF-539) | GI50 (TK-10) | GI50 (NCI-H226) | GI50 (ACHN) | GI50 (HT-29) | GI50 (U-251) | GI50 (SNB-19) | GI50 (MOLT-4)
1 | Cc1c(CNc2ccc(Cl)c(C(=O)NC(CC(=O)O)C(=O)O)c2)ccc2nc(N)nc(N)c12 (configuration not stated) | 0.0753 µM (active) | 0.0399 µM (active) | 121 µM (inactive) | 0.57 µM (active) | 0.0163 µM (active) | 0.142 µM (active) | 2.42 µM (inactive) | < 0.01 µM (active) | 8.15 µM (inactive) | 4.66 µM (inactive) | > 100 µM (inactive) | 2.62 µM (inactive) | 5.12 µM (inactive) | > 100 µM (inactive) | 0.0262 µM (active) | < 0.0208 µM (active) | 0.134 µM (active) | 0.322 µM (active) | –
2 | O=C(O)C1C2OC(C(Br)C2Br)C1C(=O)O (configuration not stated) | – | > 100 µM (inactive) | > 100 µM (inactive) | > 100 µM (inactive) | > 100 µM (inactive) | > 100 µM (inactive) | > 100 µM (inactive) | > 100 µM (inactive) | > 100 µM (inactive) | > 100 µM (inactive) | > 100 µM (inactive) | > 100 µM (inactive) | > 100 µM (inactive) | > 100 µM (inactive) | > 100 µM (inactive) | > 100 µM (inactive) | > 100 µM (inactive) | > 100 µM (inactive) | > 100 µM (inactive)
3 | COc1ccc(CNc2nc3cc(C(F)(F)F)ccc3nc2-c2ccccc2)cc1OC | 22.6 µM (inactive) | 54.6 µM (inactive) | 45.6 µM (inactive) | > 10 µM (inactive) | 49.3 µM (inactive) | 20.8 µM (inactive) | 34 µM (inactive) | 30.3 µM (inactive) | 18.7 µM (inactive) | 35.1 µM (inactive) | – | 45.9 µM (inactive) | 53.2 µM (inactive) | – | 23.8 µM (inactive) | 21.1 µM (inactive) | – | > 100 µM (inactive) | 25.5 µM (inactive)
4 | CC1=C(\C=C/C(C)=C/C=C/C(C)=C/C=C/C=C(C)\C=C\C=C(C)/C=C/C2=C(C)CCCC2(C)C)C(C)(C)CCC1 | > 100 µM (inactive) | > 100 µM (inactive) | > 100 µM (inactive) | > 100 µM (inactive) | > 100 µM (inactive) | 34.2 µM (inactive) | – | 22.1 µM (inactive) | – | 52.6 µM (inactive) | – | – | > 100 µM (inactive) | > 100 µM (inactive) | > 100 µM (inactive) | 56.4 µM (inactive) | 56.2 µM (inactive) | > 100 µM (inactive) | > 100 µM (inactive)
5 | C=CCSc1nn(CC=C)cc2ncnc1-2 | > 100 µM (inactive) | > 100 µM (inactive) | – | > 100 µM (inactive) | > 100 µM (inactive) | > 100 µM (inactive) | > 100 µM (inactive) | > 100 µM (inactive) | > 100 µM (inactive) | > 100 µM (inactive) | > 100 µM (inactive) | > 100 µM (inactive) | > 100 µM (inactive) | > 100 µM (inactive) | > 100 µM (inactive) | > 100 µM (inactive) | > 100 µM (inactive) | > 100 µM (inactive) | > 100 µM (inactive)
6 | COc1ccccc1NC(=S)Nc1cccc(C)n1 | > 100 µM (inactive) | > 100 µM (inactive) | 16.7 µM (inactive) | > 100 µM (inactive) | > 100 µM (inactive) | – | > 100 µM (inactive) | > 100 µM (inactive) | 16.2 µM (inactive) | > 100 µM (inactive) | > 100 µM (inactive) | > 100 µM (inactive) | > 100 µM (inactive) | 36.9 µM (inactive) | – | 45.3 µM (inactive) | > 100 µM (inactive) | > 100 µM (inactive) | > 100 µM (inactive)
7 | O=C(Nc1cc(Cl)ccc1Cl)c1cc2cccc(Br)c2oc1=O | > 100 µM (inactive) | 57.1 µM (inactive) | > 100 µM (inactive) | > 100 µM (inactive) | > 100 µM (inactive) | > 100 µM (inactive) | > 100 µM (inactive) | > 100 µM (inactive) | > 100 µM (inactive) | > 100 µM (inactive) | > 100 µM (inactive) | 56.4 µM (inactive) | > 100 µM (inactive) | > 100 µM (inactive) | > 100 µM (inactive) | > 100 µM (inactive) | 70.5 µM (inactive) | > 100 µM (inactive) | > 100 µM (inactive)
8 | Clc1cc(Br)c2c3c(c(Br)cc(Cl)c13)C(Br)=C2Br | – | 31 µM (inactive) | 27.6 µM (inactive) | 19.5 µM (inactive) | 28.2 µM (inactive) | – | 19.1 µM (inactive) | 21.2 µM (inactive) | 28.6 µM (inactive) | – | 21.6 µM (inactive) | 19 µM (inactive) | 21.8 µM (inactive) | 39.4 µM (inactive) | 19.7 µM (inactive) | 25.2 µM (inactive) | 43.8 µM (inactive) | > 100 µM (inactive) | 19.8 µM (inactive)
